Assay results published in patent US10869931B2, “Polyethylene glycol-modified angiogenesis inhibitor HM-1 and application thereof” (NANJING ANJI BIOLOGICAL TECHNOLOGY CO.,LTD, priority 2016, dated 2020).
“And” between values parts separate entries of the source, which are not always exact repeats. Identical values can stand only once. Marks after values point to notes of the source that are not given here.

Key:
[1] = test system: xylene-induced ear swelling in Kunming mice; test: Xylene-induced ear swelling in mice; type: in vivo, mouse; details: 200 mg/kg (positive control) once daily for 5 days
Procedure: Kunming mice were used. The saline group was used as the blank control group, the aspirin group (200 mg/kg) as the positive control group, and the mPEG-HM-1 administration group as the experimental group. Mice were administered once daily for 5 consecutive days. The blank control group was given an equal volume of physiological saline. One hour after the last administration, 0.05 mL of xylene was applied to both sides of the right ear of the mice to cause inflammation, and the left ear was not coated as normal ears. After 2 h, the mice were sacrificed by dislocation, and the ears were cut along the auricle. Ear pieces were taken with a puncher, weighed, and the swelling degree and swelling rate were calculated. Swelling degree=right ear piece weight-left ear piece weight, swelling rate=(swelling degree/left ear piece weight)×100%. Statistical t-test was performed on the test results, *P<0.05 was a significant difference, and **P<0.01 was a very significant difference. See Table 31 to Table 34 for the results.

[2] = test system: Head and neck cancer tumor cells; test: MTT proliferation inhibition, head and neck cancer cells; type: cell-based, human; design: concentration or dose not given beside the values; details: 48 h
Procedure: (§1) The activity of mPEG-HM-1 to inhibit the growth of various tumor cells was examined by MTT assay. The tumor cells were cultured to a concentration of 90% or more in a 37° C., 5% CO2 incubator and collected by trypsinization. The cells were resuspended in the culture medium and counted under a microscope to adjust the cell concentration to 2×10^4 cells/mL, the cell suspension was inoculated into a 96-well plate at 100 μL/well and incubated overnight at 37° C. in a 5% CO2 incubator. mPEG-HM-1 was diluted with the culture solution to each predetermined concentration. Docetaxel is diluted to the final concentration with the culture medium. After the cells were fully attached, each dilution was added to a 96-well plate (100 μL/well). The mPEG-HM-1 dilution was added as a drug-administered group, and docetaxel was added as a positive control group, and a culture solution without any drug was used as a negative control group. Incubate for 48 h at 37° C. in a 5% CO2 incubator. 5 mg/mL of MTT was added to a 96-well plate at 20 μL per well, and incubation was continued for 4 hours. The medium was aspirated, dissolved in 150 μL of DMSO per well, and gently mixed by shaking for 10 min. The absorbance was measured at a measurement wavelength of 570 nm and a reference wavelength of 630 nm using a microplate reader, and the rate of growth inhibition (proliferation inhibition, PI) was calculated. The formula is as follows: PI (%)=1−administration group/negative group
(§2) The test was repeated 3 times independently, and the results obtained by the test were expressed as mean±SD, and the test results are shown in Table 15 to Table 18.

[3] = test system: Brain tumor cells; test: MTT proliferation inhibition, brain tumor cells; type: cell-based, human; design: concentration or dose not given beside the values; details: 48 h
Procedure: as §1, §2

[4] = test system: Thyroid cancer tumor cells; test: MTT proliferation inhibition, thyroid cancer cells; type: cell-based, human; design: concentration or dose not given beside the values; details: 48 h
Procedure: as §1, §2

[5] = test system: Esophageal cancer tumor cells; test: MTT proliferation inhibition, esophageal cancer cells; type: cell-based, human; design: concentration or dose not given beside the values; details: 48 h
Procedure: as §1, §2

[6] = test system: Pancreatic cancer tumor cells; test: MTT proliferation inhibition, pancreatic cancer cells; type: cell-based, human; design: concentration or dose not given beside the values; details: 48 h
Procedure: as §1, §2

[7] = test system: Lung cancer tumor cells; test: MTT proliferation inhibition, lung cancer cells; type: cell-based, human; design: concentration or dose not given beside the values; details: 48 h
Procedure: as §1, §2

[8] = test system: Liver cancer tumor cells; test: MTT proliferation inhibition, liver cancer cells; type: cell-based, human; design: concentration or dose not given beside the values; details: 48 h
Procedure: as §1, §2

[9] = test system: Gastric cancer tumor cells; test: MTT proliferation inhibition, gastric cancer cells; type: cell-based, human; design: concentration or dose not given beside the values; details: 48 h
Procedure: as §1, §2

[10] = test system: Breast cancer tumor cells; test: MTT proliferation inhibition, breast cancer cells; type: cell-based, human; design: concentration or dose not given beside the values; details: 48 h
Procedure: as §1, §2

[11] = test system: Kidney cancer tumor cells; test: MTT proliferation inhibition, kidney cancer cells; type: cell-based, human; design: concentration or dose not given beside the values; details: 48 h
Procedure: as §1, §2

[12] = test system: Colorectal cancer tumor cells; test: MTT proliferation inhibition, colorectal cancer cells; type: cell-based, human; design: concentration or dose not given beside the values; details: 48 h
Procedure: as §1, §2

[13] = test system: Ovarian cancer tumor cells; test: MTT proliferation inhibition, ovarian cancer cells; type: cell-based, human; design: concentration or dose not given beside the values; details: 48 h
Procedure: as §1, §2

[14] = test system: Cervical cancer tumor cells; test: MTT proliferation inhibition, cervical cancer cells; type: cell-based, human; design: concentration or dose not given beside the values; details: 48 h
Procedure: as §1, §2

[15] = test system: Uterine cancer tumor cells; test: MTT proliferation inhibition, uterine cancer cells; type: cell-based, human; design: concentration or dose not given beside the values; details: 48 h
Procedure: as §1, §2

[16] = test system: Prostate cancer tumor cells; test: MTT proliferation inhibition, prostate cancer cells; type: cell-based, human; design: concentration or dose not given beside the values; details: 48 h
Procedure: as §1, §2

[17] = test system: Bladder Cancer tumor cells; test: MTT proliferation inhibition, bladder cancer cells; type: cell-based, human; design: concentration or dose not given beside the values; details: 48 h
Procedure: as §1, §2

[18] = test system: Melanoma tumor cells; test: MTT proliferation inhibition, melanoma cells; type: cell-based, human; design: concentration or dose not given beside the values; details: 48 h
Procedure: as §1, §2

[19] = test system: Hemangioma tumor cells; test: MTT proliferation inhibition, hemangioma cells; type: cell-based, human; design: concentration or dose not given beside the values; details: 48 h
Procedure: as §1, §2

[20] = test system: sarcoma tumor cells; test: MTT proliferation inhibition, sarcoma cells; type: cell-based, human; design: concentration or dose not given beside the values; details: 48 h
Procedure: as §1, §2

For `CC(=O)Oc1ccccc1C(=O)O` [aspirin, reference compound], the Swelling ([1]; 2 h after xylene) was 3.07 ± 0.31** mg and 3.02 ± 0.41** mg and 3.01 ± 0.53** mg and 2.98 ± 0.53** mg and the “Inhibition rate” value ([1]; ear swelling vs control) was 50.02% and 51.11% and 50.87% and 50.93%.
With `CC(=O)O[C@@]12CO[C@@H]1C[C@H](O)[C@@]1(C)C(=O)[C@H](O)C3=C(C)[C@@H](OC(=O)[C@H](O)[C@@H](NC(=O)OC(C)(C)C)c4ccccc4)C[C@@](O)([C@@H](OC(=O)c4ccccc4)[C@H]21)C3(C)C` [Docetaxel, reference compound] the “rate of growth inhibition” value [2] was 49.23 ± 10.01%, the “rate of growth inhibition” value [3] was 59.23 ± 16.21% and the “rate of growth inhibition” value [4] was 56.21 ± 14.28%. For the same molecule, the “rate of growth inhibition” value [5] was 60.18 ± 17.02%, the “rate of growth inhibition” value [6] was 71.13 ± 20.13% and the “rate of growth inhibition” value [7] was 68.23 ± 18.32%. The “rate of growth inhibition” value [8] was 66.70 ± 17.25%, the “rate of growth inhibition” value [9] was 77.34 ± 22.18% and the “rate of growth inhibition” value [10] was 65.31 ± 21.44%. The “rate of growth inhibition” value [11] was 72.93 ± 18.31%, the “rate of growth inhibition” value [12] was 74.59 ± 20.33% and the “rate of growth inhibition” value [13] was 85.12 ± 19.39%. For the same molecule, the “rate of growth inhibition” value [14] was 80.21 ± 19.54%, the “rate of growth inhibition” value [15] was 80.25 ± 22.18% and the “rate of growth inhibition” value [16] was 45.62 ± 14.03%. For the same molecule, the “rate of growth inhibition” value [17] was 46.72 ± 13.65%, the “rate of growth inhibition” value [18] was 83.49 ± 23.27% and the “rate of growth inhibition” value [19] was 56.92 ± 16.76%. For the same molecule, the “rate of growth inhibition” value [20] was 51.31 ± 10.49%.
